Test results published in PubChem BioAssay AID248 (DTP/NCI, 2004).
Inconclusive results and toxic doses are left out.

System: L1210 leukemia ip in BDF1 mice, survival T/C
Test: NCI In Vivo Anticancer Drug Screen. Data for tumor model L1210 Leukemia (intraperitoneal) in B6D2F1 (BDF1) mice
Conditions: endpoint: mean survival time, higher = longer survival
Method in brief: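 Tumor cells were implanted, animals were treated, and survival was followed. The result divides the treated measurement by the vehicle-control measurement.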

[1] = dose: 100.0 mg/kg/injection, schedule: Q01DX009 (ip), vehicle: Klucel (hydroxypropylcellulose) (HPC)
[2] = dose: 200.0 mg/kg/injection, schedule: Q01DX009 (ip), vehicle: Klucel (hydroxypropylcellulose) (HPC)
[3] = dose: 400.0 mg/kg/injection, schedule: Q01DX009 (ip), vehicle: Klucel (hydroxypropylcellulose) (HPC)
[4] = dose: 400.0 mg/kg/injection, schedule: Q04DX003 (ip), vehicle: saline
[5] = dose: 100.0 mg/kg/injection, schedule: Q01DX001 (ip), vehicle: saline
[6] = dose: 200.0 mg/kg/injection, schedule: Q01DX001 (ip), vehicle: saline
[7] = dose: 400.0 mg/kg/injection, schedule: Q01DX001 (ip), vehicle: saline

`Cc1cc2c(c3oc(C4(C)OC4C4OC4C)cc(=O)c13)C(=O)c1c(O)c(C3CC(C)(N(C)C)C(O)C(C)O3)cc(C3CC(N(C)C)C(O)C(C)O3)c1C2=O` (stereo unspecified) was tested, and the T/C (dose: 0.06 mg/kg/injection, schedule: Q01DX009 (ip), vehicle: other) was 118 % of control, the T/C (dose: 0.06 mg/kg/injection, schedule: Q01DX009 (ip), vehicle: saline) was 114 % of control and the T/C (dose: 0.12 mg/kg/injection, schedule: Q01DX009 (ip), vehicle: other) was 95 % of control. For the same compound, the T/C (dose: 0.12 mg/kg/injection, schedule: Q01DX009 (ip), vehicle: saline) was 86 % of control, the T/C (dose: 0.24 mg/kg/injection, schedule: Q01DX009 (ip), vehicle: saline) was 88 % of control and the T/C (dose: 1.5 micrograms/kg/injection, schedule: Q01DX015 (ip), vehicle: saline) was 115 % of control. The T/C (dose: 3.0 micrograms/kg/injection, schedule: Q01DX015 (ip), vehicle: saline) was 114 % of control, the T/C (dose: 4.0 micrograms/kg/injection, schedule: Q01DX001 (ip), vehicle: carboxymethylcellulose (CMC)) was 110 % of control and the T/C (dose: 6.0 micrograms/kg/injection, schedule: Q01DX015 (ip), vehicle: saline) was 117 % of control. The T/C (dose: 9.0 micrograms/kg/injection, schedule: Q01DX001 (ip), vehicle: carboxymethylcellulose (CMC)) was 109 % of control, the T/C (dose: 12.0 micrograms/kg/injection, schedule: Q01DX015 (ip), vehicle: saline) was 117 % of control and the T/C (dose: 18.0 micrograms/kg/injection, schedule: Q01DX001 (ip), vehicle: carboxymethylcellulose (CMC)) was 112 % of control. The T/C (dose: 25.0 micrograms/kg/injection, schedule: Q01DX Z (ip), vehicle: carboxymethylcellulose (CMC)) was 107 % of control, the T/C (dose: 37.0 micrograms/kg/injection, schedule: Q01DX001 (ip), vehicle: carboxymethylcellulose (CMC)) was 112 % of control and the T/C (dose: 50.0 micrograms/kg/injection, schedule: Q01DX Z (ip), vehicle: carboxymethylcellulose (CMC)) was 98 % of control. The T/C (dose: 75.0 micrograms/kg/injection, schedule: Q01DX001 (ip), vehicle: carboxymethylcellulose (CMC)) was 121 % of control and the T/C (dose: 96.0 micrograms/kg/injection, schedule: Q01DX015 (ip), vehicle: saline) was 108 % of control.

`COc1ccc(OC)c(NC(=O)Nc2c(C)n(C)n(-c3ccccc3)c2=O)c1` was tested, and the T/C [1] was 93 % of control, the T/C (dose: 100.0 mg/kg/injection, schedule: Q04DX003 (ip), vehicle: Klucel (hydroxypropylcellulose) (HPC)) was 98 % of control and the T/C [2] was 93 % of control. For the same compound, the T/C (dose: 200.0 mg/kg/injection, schedule: Q04DX003 (ip), vehicle: Klucel (hydroxypropylcellulose) (HPC)) was 93 % of control, the T/C [3] was 101 % of control and the T/C (dose: 400.0 mg/kg/injection, schedule: Q04DX003 (ip), vehicle: Klucel (hydroxypropylcellulose) (HPC)) was 90 % of control.

For `C#CCCCCC#CCCCCNC(=O)NCCCCC#CCCCCC#C`, the T/C (dose: 100.0 mg/kg/injection, schedule: Q04DX003 (ip), vehicle: saline) was 93 % of control, the T/C (dose: 200.0 mg/kg/injection, schedule: Q04DX003 (ip), vehicle: saline) was 90 % of control and the T/C [4] was 87 % of control.

In the case of `COc1cc(/C=N/Nc2ccc([N+](=O)[O-])cc2)cc(OC)c1OC`, the T/C (dose: 100.0 mg/kg/injection, schedule: Q04DX003 (ip), vehicle: saline with Tween-80) is reported as 86 % of control, the T/C (dose: 200.0 mg/kg/injection, schedule: Q04DX003 (ip), vehicle: saline with Tween-80) is reported as 89 % of control and the T/C (dose: 400.0 mg/kg/injection, schedule: Q04DX003 (ip), vehicle: saline with Tween-80) is reported as 86 % of control.

`COC(=O)C1(C)CSCCC1=O` (stereo unspecified) was tested, and the T/C (dose: 100.0 mg/kg/injection, schedule: Q01DX009 (ip), vehicle: other) was 94 % of control, the T/C (dose: 200.0 mg/kg/injection, schedule: Q01DX009 (ip), vehicle: other) was 94 % of control and the T/C (dose: 400.0 mg/kg/injection, schedule: Q01DX009 (ip), vehicle: other) was 99 % of control.

In the case of `BrC1C=CC=CN1C/C=C/CN1C=CC=CC1Br` (stereo unspecified), the T/C (dose: 75.0 mg/kg/injection, schedule: Q01DX001 (ip), vehicle: saline) is reported as 96 % of control and the T/C (dose: 150.0 mg/kg/injection, schedule: Q01DX001 (ip), vehicle: saline) is reported as 97 % of control.

In the case of `CN(C)C=C1C(=O)NC(=O)NC1=O`, the T/C (dose: 25.0 mg/kg/injection, schedule: Q01DX001 (ip), vehicle: saline) is reported as 96 % of control, the T/C (dose: 25.0 mg/kg/injection, schedule: Q01DX009 (ip), vehicle: saline) is reported as 95 % of control and the T/C (dose: 50.0 mg/kg/injection, schedule: Q01DX001 (ip), vehicle: saline) is reported as 103 % of control. For the same compound, the T/C (dose: 50.0 mg/kg/injection, schedule: Q01DX009 (ip), vehicle: saline) was 106 % of control, the T/C [5] was 102 % of control and the T/C (dose: 100.0 mg/kg/injection, schedule: Q01DX009 (ip), vehicle: saline) was 106 % of control.

With `O=C(O)CCc1ccsc1` the T/C [5] was 94 % of control, the T/C [6] was 100 % of control and the T/C [7] was 102 % of control.

`O=C(NNC(=O)c1ccccc1O)c1ccccc1` was tested, and the T/C (dose: 100.0 mg/kg/injection, schedule: Q04DX002 (ip), vehicle: saline with Tween-80) was 93 % of control, the T/C (dose: 200.0 mg/kg/injection, schedule: Q04DX002 (ip), vehicle: saline with Tween-80) was 93 % of control and the T/C (dose: 400.0 mg/kg/injection, schedule: Q04DX002 (ip), vehicle: saline with Tween-80) was 97 % of control.

For `CC1(C)Oc2c(ccc(O)c2CN2CCCCC2)C2=C1CCCC2`, the T/C [5] was 89 % of control.

For `O=C1CCc2nc(=O)c3c4ccccc4ccc3n21`, the T/C (dose: 100.0 mg/kg/injection, schedule: Q01DX001 (ip), vehicle: Klucel (hydroxypropylcellulose) (HPC)) was 94 % of control, the T/C (dose: 200.0 mg/kg/injection, schedule: Q01DX001 (ip), vehicle: Klucel (hydroxypropylcellulose) (HPC)) was 100 % of control and the T/C (dose: 400.0 mg/kg/injection, schedule: Q01DX001 (ip), vehicle: Klucel (hydroxypropylcellulose) (HPC)) was 99 % of control.

`CSc1nnn(C(C)(C)C)n1` was tested, and the T/C (dose: 100.0 mg/kg/injection, schedule: Q01DX001 (ip), vehicle: acetone) was 100 % of control and the T/C (dose: 200.0 mg/kg/injection, schedule: Q01DX001 (ip), vehicle: acetone) was 91 % of control.

In the case of `CCCCNC(=O)N(C1CCCCC1)C1CCCCC1`, the T/C [1] is reported as 103 % of control, the T/C [2] is reported as 92 % of control and the T/C [3] is reported as 92 % of control.

In the case of `CC(=O)C1(O)CCC2C3CC(C)C4=CC(=O)C=CC4(C)C3C(O)CC21C` (stereo unspecified), the T/C (dose: 12.5 mg/kg/injection, schedule: Q04DX002 (ip), vehicle: Klucel (hydroxypropylcellulose) (HPC)) is reported as 97 % of control, the T/C (dose: 25.0 mg/kg/injection, schedule: Q04DX002 (ip), vehicle: Klucel (hydroxypropylcellulose) (HPC)) is reported as 97 % of control and the T/C (dose: 50.0 mg/kg/injection, schedule: Q04DX002 (ip), vehicle: Klucel (hydroxypropylcellulose) (HPC)) is reported as 90 % of control.

For `CCOC(=O)Sc1ncnc2nc[nH]c12`, the T/C (dose: 10.0 mg/kg/injection, schedule: Q01DX Z (ip), vehicle: carboxymethylcellulose (CMC)) was 117 % of control.

With `NC(N)=N/N=C/N1CCCCC1` the T/C (dose: 60.0 mg/kg/injection, schedule: Q01DX Z (oral), vehicle: methylcellulose (MC)) was 90 % of control, the T/C (dose: 120.0 mg/kg/injection, schedule: Q01DX Z (oral), vehicle: methylcellulose (MC)) was 100 % of control and the T/C (dose: 240.0 mg/kg/injection, schedule: Q01DX Z (ip), vehicle: methylcellulose (MC)) was 110 % of control. For the same compound, the T/C (dose: 240.0 mg/kg/injection, schedule: Q01DX Z (oral), vehicle: methylcellulose (MC)) was 89 % of control, the T/C (dose: 300.0 mg/kg/injection, schedule: Q01DX Z (oral), vehicle: methylcellulose (MC)) was 100 % of control and the T/C (dose: 360.0 mg/kg/injection, schedule: Q01DX Z (ip), vehicle: methylcellulose (MC)) was 103 % of control. The T/C (dose: 400.0 mg/kg/injection, schedule: Q01DX Z (oral), vehicle: methylcellulose (MC)) was 105 % of control, the T/C (dose: 480.0 mg/kg/injection, schedule: Q01DX Z (ip), vehicle: methylcellulose (MC)) was 107 % of control and the T/C (dose: 480.0 mg/kg/injection, schedule: Q01DX Z (oral), vehicle: methylcellulose (MC)) was 101 % of control. For the same compound, the T/C (dose: 720.0 mg/kg/injection, schedule: Q01DX Z (ip), vehicle: methylcellulose (MC)) was 95 % of control.

`Cc1nc(-c2ccccc2)nc2c1CCO2` was tested, and the T/C (dose: 100.0 mg/kg/injection, schedule: Q01DX009 (ip), vehicle: saline with Tween-80) was 100 % of control and the T/C (dose: 200.0 mg/kg/injection, schedule: Q01DX009 (ip), vehicle: saline with Tween-80) was 107 % of control.

For `O=C(Nc1ccccc1-c1ccc([N+](=O)[O-])cc1)c1ccc(-c2ccccc2)cc1`, the T/C [4] was 92 % of control.

`CCOC(=O)CS(C)(=O)=O` was tested, and the T/C [5] was 98 % of control, the T/C [6] was 93 % of control and the T/C [7] was 94 % of control.

In the case of `N.N.N.N.N.N#CN=C(N)N.[Co+3].[O-][Cl+3]([O-])([O-])[O-]`, the T/C (dose: 100.0 mg/kg/injection, schedule: Q04DX002 (ip), vehicle: saline) is reported as 171 % of control.
